# Laboratory results taken from patent US20150250770A1, “LKB1 AS PREDICTIVE MARKER OF EVEROLIMUS EFFICACY IN BREAST CANCER” (CENTRE LEON BERARD, priority 2012, published 2015).
# Where two headings read alike, the source gives them in different places.
# Key:
# [1] = TAMRAD study; cited from earlier work
# [2] = test system: breast tumours with low or high LKB1 expression; test: TAMRAD translational study: time to progression by LKB1 H score (IHC) in primary tumour; format: in vivo, human
# Method: Paraffin embedded breast tumors were serially sectioned at a thickness of 4 μm. After deparaffinization and rehydration, tissue sections were boiled in low pH buffer (Dako) using a PT Link at 97° C. for 30 minutes. For blocking endogenous peroxidases, the slides were incubated in 5% hydrogen peroxide in sterile water. The slides were then incubated at room temperature for one hour with the anti-LKB1 polyclonal rabbit antibody (Ref: Ab58786, Abcam, Cambridge, UK) diluted at 1/50. After rinsing in Phosphate Buffer Saline, the slides were incubated with a biotinylated secondary antibody bound to a streptavidin peroxidase conjugate (Envision Flex kit Ref: K800021-2, Dako, Trappes, France). […] Sections were counterstained with hematoxylin.
# All slides were read by a single senior pathologist who was blinded to the clinical data. For comparison of the staining among tissues, samples were scored semi-quantitatively using a complete histological score (H score) that considered both the staining intensity and the percentage of cells stained at a specific range of intensities. For each case, the complete H score was defined as the products of the percentage of cells stained at a given staining intensity (0-100) and the staining intensity score (0, none; 1, weak, 2, moderate, and 3, intense). […]
# [3] = test system: hormone receptor-positive and human epidermal growth factor receptor type 2 (HER2)-negative mBC; settings: cited from earlier work
# [4] = test system: metastatic breast cancer ER+/HER2− progressed after aromatase inhibitor; settings: 724 patients randomized 2:1; cited from earlier work
compound,measurement,setting,value
"CO[C@H]1C[C@@H]2CC[C@@H](C)[C@@](O)(O2)C(=O)C(=O)N2CCCC[C@H]2C(=O)O[C@H]([C@H](C)C[C@@H]2CC[C@@H](OCCO)[C@H](OC)C2)CC(=O)[C@H](C)/C=C(\C)[C@@H](O)[C@@H](OC)C(=O)[C@H](C)C[C@H](C)/C=C/C=C/C=C/1C [everolimus, 42-O-(2-hydroxyethyl)rapamycin]",patients who had to decrease the dose of everolimus,[1],20%
same,patients who had to stop everolimus due to toxicities,[1],20%
CC/C(=C(\c1ccccc1)c1ccc(OCCN(C)C)cc1)c1ccccc1 [tamoxifen],time to progression,"[2]; patients with H Score above 90, p=0.35",5.5 months
same,time to progression,"[2]; patients with LKB1 H Score below or at 90, P=0.03",4.5 months
same,median TTP,"[3]; ITT population, exploratory P=0.002",4.5 months
same,clinical benefit rate (CBR) at 6 months,"[3]; ITT population, exploratory P=0.045",42%
same,time-to-progression (TTP),"[3]; TAMRAD trial, 111 patients",4.5 months
same,median OS,[3]; last update of OS in September 2011,32.9 months
same,clinical benefit rate (CBR) at 6 months,[3]; per-protocol population,41%
exemestane [exemestane and placebo],"progression free survival (PFS), local investigator assessment",[4],2.8 months
